Converted amounts (≈) assume the structure as drawn.

Results on three compounds are retold here after PMC11273936, “The Antimicrobial Peptide Capitellacin: Chemical Synthesis of Analogues to Probe the Role of Disulphide Bridges and Their Replacement with Vinyl Sulphides” (Antibiotics, 2024).

For one experiment, the system named is S. aureus ATCC 25913. Kind of experiment: MIC assay, bacteria (CLSI broth microdilution). The format is cell-based. The conditions noted are these: Staphylococcus aureus, ATCC25913, Gram positive, CA-MHB, 37 °C with shaking, 18 h, ~5 x10^5 CFU/mL, triplicate, three biological replicates, read-out: Minimum Inhibitory Concentrations, S. aureus ATCC 25913.
In another experiment the test system is E. coli ATCC 25922. Kind of experiment: MIC assay, bacteria (CLSI broth microdilution). The format is cell-based, Escherichia coli. The conditions noted are these: Gram negative, CA-MHB, 37 °C with shaking, 18 h, ~5 x10^5 CFU/mL, triplicate, three biological replicates. (In general: Broth dilution looks for growth in wells or tubes with falling amounts of substance.)

In a further experiment the test system is P. aeruginosa SVB-B9. Kind of experiment: MIC assay, bacteria (CLSI broth microdilution). The format is cell-based, Pseudomonas aeruginosa. The conditions noted are these: Gram negative, CA-MHB, 37 °C with shaking, 18 h, ~5 x10^5 CFU/mL, triplicate, three biological replicates.
The test system of a further experiment is C. albicans SC5314. Nature of the experiment: MIC assay, fungus (CLSI broth microdilution). The format is cell-based. The conditions noted are these: Candida albicans, RPMI 1640, 35 °C, 48 h, 0.5 x 10^3 to 2.5 x 10^3 CFU/mL, triplicate, three independent assays, read-out: Minimum Inhibitory Concentrations, C. albicans SC5314 (reference strain).

Take `CC1(C)S[C@@H]2[C@H](NC(=O)[C@H](N)c3ccc(O)cc3)C(=O)N2[C@H]1C(=O)O` [AMX, amoxicillin]: in the experiment on S. aureus ATCC 25913, the MIC came out at 2 µM (≈ 0.731 µg/mL). On to polymyxin B [PMB], for which the “Minimum Inhibitory Concentrations, E. coli ATCC 25922” value in the experiment with E. coli ATCC 25922 amounted to 0.125 µM. The “Minimum Inhibitory Concentrations, P. aeruginosa SVB-B9 (type strain)” value in the experiment with P. aeruginosa SVB-B9 is given as 0.125 µM.

`C[C@@H]1[C@H](O)[C@@H](C)/C=C/C=C/C=C/C=C/C=C/C=C/C=C/[C@H](O[C@@H]2O[C@H](C)[C@@H](O)[C@H](N)[C@@H]2O)C[C@@H]2O[C@](O)(C[C@@H](O)C[C@@H](O)[C@H](O)CC[C@@H](O)C[C@@H](O)CC(=O)O[C@H]1C)C[C@H](O)[C@H]2C(=O)O` [AMB, amphotericin B]: the MIC with C. albicans SC5314 was 1 µM (≈ 0.924 µg/mL).
